Measured values reported in patent US20160120863A1, “SLC2A TRANSPORTER INHIBITORS” (IOMET PHARMA LTD., priority 2013, published 2016).

How the values were obtained:
Type in all cases: cell-based
[1] = target: T1, human GLUT2 (Homo sapiens, UniProt P11168); test: [3H]-deoxy-D-glucose uptake assay, GLUT2; details: [3H]-deoxy-D-glucose uptake in HEK293 cells stably expressing human GLUT2
T1 construct: expressed in transfected cells
T1 sequence (P11168 1-524): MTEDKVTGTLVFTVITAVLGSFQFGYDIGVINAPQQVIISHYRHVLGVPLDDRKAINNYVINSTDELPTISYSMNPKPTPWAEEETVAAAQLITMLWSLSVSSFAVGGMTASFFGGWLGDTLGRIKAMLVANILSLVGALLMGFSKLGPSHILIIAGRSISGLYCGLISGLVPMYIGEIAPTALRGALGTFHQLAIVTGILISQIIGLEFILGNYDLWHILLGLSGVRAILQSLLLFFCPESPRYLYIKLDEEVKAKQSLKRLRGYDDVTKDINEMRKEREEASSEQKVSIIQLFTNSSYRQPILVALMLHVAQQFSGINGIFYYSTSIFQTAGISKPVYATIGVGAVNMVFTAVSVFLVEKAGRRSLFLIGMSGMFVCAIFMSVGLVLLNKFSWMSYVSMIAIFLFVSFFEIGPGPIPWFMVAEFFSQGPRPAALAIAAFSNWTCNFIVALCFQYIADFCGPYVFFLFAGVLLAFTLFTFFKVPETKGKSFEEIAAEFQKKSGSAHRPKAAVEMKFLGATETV
Procedure, shortened: (§1)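 HEK293 cells stably overexpressing human GLUT1 or GLUT2, seeded at 60,000 per well, treated with compounds in glucose-free uptake buffer for 30 min at 37 °C. [3H]-deoxy-D-glucose uptake quantified by scintillation counting after ice-cold PBS washes; IC50 determined.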

[2] = target: T2, human GLUT1 (Homo sapiens, UniProt P11166); test: [3H]-deoxy-D-glucose uptake assay, GLUT1; details: [3H]-deoxy-D-glucose uptake in HEK293 cells stably expressing human GLUT1
T2 construct: expressed in transfected cells
T2 sequence (P11166 1-492): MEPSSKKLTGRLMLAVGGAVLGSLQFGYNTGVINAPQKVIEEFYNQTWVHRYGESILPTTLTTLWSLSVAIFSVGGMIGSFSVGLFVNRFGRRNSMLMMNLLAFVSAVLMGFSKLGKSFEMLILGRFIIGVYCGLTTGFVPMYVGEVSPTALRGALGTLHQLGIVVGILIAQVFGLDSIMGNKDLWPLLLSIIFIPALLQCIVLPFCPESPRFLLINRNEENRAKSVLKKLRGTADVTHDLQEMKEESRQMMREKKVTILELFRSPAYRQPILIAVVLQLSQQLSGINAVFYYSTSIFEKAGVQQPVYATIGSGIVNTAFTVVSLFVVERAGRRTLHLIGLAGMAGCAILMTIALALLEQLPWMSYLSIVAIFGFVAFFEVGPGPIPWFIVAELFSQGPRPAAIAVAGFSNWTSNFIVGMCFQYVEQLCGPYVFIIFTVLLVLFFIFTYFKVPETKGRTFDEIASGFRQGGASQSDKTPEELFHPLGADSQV
Procedure, shortened: as §1

[3] = target: T3, human GLUT4 (Homo sapiens, UniProt P14672); test: [3H]-deoxy-D-glucose uptake assay, GLUT4; details: [3H]-deoxy-D-glucose uptake in HEK293 cells stably expressing human GLUT4
T3 construct: expressed in transfected cells
T3 sequence (P14672 1-509): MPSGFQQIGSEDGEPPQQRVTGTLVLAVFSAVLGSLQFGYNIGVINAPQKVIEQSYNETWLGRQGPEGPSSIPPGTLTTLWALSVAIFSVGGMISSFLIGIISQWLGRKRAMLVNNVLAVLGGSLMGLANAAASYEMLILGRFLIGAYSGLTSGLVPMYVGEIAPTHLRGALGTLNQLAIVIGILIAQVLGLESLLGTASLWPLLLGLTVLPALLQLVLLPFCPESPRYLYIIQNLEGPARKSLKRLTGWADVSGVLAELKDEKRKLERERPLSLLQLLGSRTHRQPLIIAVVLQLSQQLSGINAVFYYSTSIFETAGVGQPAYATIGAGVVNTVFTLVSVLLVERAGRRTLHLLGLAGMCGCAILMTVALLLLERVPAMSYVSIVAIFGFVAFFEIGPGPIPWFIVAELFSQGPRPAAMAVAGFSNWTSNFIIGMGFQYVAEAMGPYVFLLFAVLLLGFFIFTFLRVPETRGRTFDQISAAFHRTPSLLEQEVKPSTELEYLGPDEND
Description: (§2) HEK293 cells were engineered to stably express either human GLUT1, GLUT2, GLUt3 or GLUT4 by transfection with the pReceiver-Lv105 plasmid, containing either hGLUT1, hGLUT2, hGLUT3, or hGLUT4 gene constructs with lipofectamine 2000, hGLUT1- hGLUT2- hGLUT3- or hGLUT4-overexpressing polyclonal populations were isolated under purinomycin selective pressure (1 μg/ml) and maintained in Dulbecco's modified Eagle's medium supplemented with 1 μg/ml purinomycin+10% foetal bovine serum (FBS).
(§3) 60,000 cells per well were seeded overnight into poly-D-lysine coasted 96-well plates. Following media removal, cells were washed twice in warm glucose-free uptake buffer (25 mM HEPES/KOH pH 7.4, 125 mM NaCl, 4.8 mM KCl, 1.2 mM MgSO4, 1.2 mM CaCl2, 1.2 mM KH2PO4). 90 μl of test compounds were added in glucose-free uptake buffer and cells were incubated at 37° C. for 30 min. 10 μl of [3H]-deoxy-D-glucose (0.25 μCi, 125 μM final assay concentration) was then added per well in glucose-free uptake buffer and uptake was allowed to proceed at 37° C. for 30 min.
(§4) Cells were then washed twice with ice-cold PBS and 100 μl of Microscint-20 was added per well. Glucose uptake was quantified with a scintillation counter. The half maximal inhibitory concentration (IC50) (a measure of the effectiveness of the test compound in inhibiting glucose uptake) was determined.

[4] = target: T4, human GLUT3 (Homo sapiens, UniProt P11169); test: [3H]-deoxy-D-glucose uptake assay, GLUT3; details: [3H]-deoxy-D-glucose uptake in HEK293 cells stably expressing human GLUT3
T4 construct: expressed in transfected cells
T4 sequence (P11169 1-496): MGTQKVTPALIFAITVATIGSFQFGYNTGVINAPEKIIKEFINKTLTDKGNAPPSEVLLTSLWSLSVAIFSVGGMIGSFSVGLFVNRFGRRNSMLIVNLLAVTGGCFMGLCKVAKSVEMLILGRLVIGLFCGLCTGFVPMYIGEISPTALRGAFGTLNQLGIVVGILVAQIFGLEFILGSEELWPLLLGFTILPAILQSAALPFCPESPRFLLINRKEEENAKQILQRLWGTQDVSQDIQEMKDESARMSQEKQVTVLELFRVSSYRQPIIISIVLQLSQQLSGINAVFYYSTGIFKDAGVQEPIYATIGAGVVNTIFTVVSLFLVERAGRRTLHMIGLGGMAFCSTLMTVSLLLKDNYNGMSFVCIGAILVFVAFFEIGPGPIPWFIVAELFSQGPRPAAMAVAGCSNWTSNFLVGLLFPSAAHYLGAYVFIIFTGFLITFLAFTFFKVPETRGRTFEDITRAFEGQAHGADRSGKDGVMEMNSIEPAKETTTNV
Description: as §2, §3, §4

Structure (SMILES)	GLUT2 pIC50 [1]	GLUT1 pIC50 [2]	GLUT4 pIC50 [3]	GLUT3 pIC50 [4]
O=C(C1CCOCC1)N1CCN(Cc2c(-c3ccc(Cl)cc3Cl)nc3cnc(C4CC4)cn23)CC1 [Compound 297]	+++ (pIC50 ≧ 6.00)	+++ (pIC50 ≧ 6.00)	+++ (pIC50 ≧ 6.00)	+++ (pIC50 ≧ 6.00)
COCC(=O)N1CCN(Cc2c(-c3ccc(Cl)cc3)nc3ccc(N(C)S(C)(=O)=O)cn23)CC1 [Compound 303]	++ (pIC50 5.00-5.99)	+++ (pIC50 ≧ 6.00)	+++ (pIC50 ≧ 6.00)	+++ (pIC50 ≧ 6.00)
O=C(c1cscn1)N1CCN(Cc2c(-c3ccc(Cl)cc3Cl)nc3cnc(C4CC4)cn23)CC1 [Compound 306]	+++ (pIC50 ≧ 6.00)	+++ (pIC50 ≧ 6.00)	+++ (pIC50 ≧ 6.00)	+++ (pIC50 ≧ 6.00)
CN(c1ccc2nc(-c3ccc(Cl)cc3)c(CN3CCN(C(=O)C4COC4)CC3)n2c1)S(C)(=O)=O [Compound 309]	++ (pIC50 5.00-5.99)	+++ (pIC50 ≧ 6.00)	+++ (pIC50 ≧ 6.00)	+++ (pIC50 ≧ 6.00)
CN(c1ccc2nc(-c3ccc(Cl)cc3)c(CN3CCN(C(=O)c4ccnnc4)CC3)n2c1)S(C)(=O)=O [Compound 310]	++ (pIC50 5.00-5.99)	+++ (pIC50 ≧ 6.00)	+++ (pIC50 ≧ 6.00)	+++ (pIC50 ≧ 6.00)
COCC(=O)N1CCN(Cc2c(-c3ccc(Cl)cc3Cl)nc3cnc(C4CC4)cn23)CC1 [Compound 311]	+++ (pIC50 ≧ 6.00)	+++ (pIC50 ≧ 6.00)	+++ (pIC50 ≧ 6.00)	+++ (pIC50 ≧ 6.00)
CC(=O)N1CCN(Cc2c(-c3ccc(Cl)cc3Cl)nc3ccc(NS(C)(=O)=O)cn23)CC1 [Compound 313]	++ (pIC50 5.00-5.99)	+++ (pIC50 ≧ 6.00)	+++ (pIC50 ≧ 6.00)	+++ (pIC50 ≧ 6.00)
CCS(=O)(=O)Nc1ccc2nc(-c3ccc(Cl)cc3)c(CN3CCN(C(C)=O)CC3)n2c1 [Compound 314]	++ (pIC50 5.00-5.99)	+++ (pIC50 ≧ 6.00)	+++ (pIC50 ≧ 6.00)	+++ (pIC50 ≧ 6.00)
CCS(=O)(=O)N(C)c1ccc2nc(-c3ccc(Cl)cc3)c(CN3CCN(C(C)=O)CC3)n2c1 [Compound 316]	++ (pIC50 5.00-5.99)	+++ (pIC50 ≧ 6.00)	+++ (pIC50 ≧ 6.00)	+++ (pIC50 ≧ 6.00)
